Reference: patent publication US8530470B2, “Chromenone derivatives” (Astrazeneca AB, priority 2011, dated 2013)
Read-outs that look alike come from different tables or passages of the source.

Key:
[1] = system: phospho AKT (ser473) in MDA-MB-468 cells; assay: Detection of phospho AKT (ser473) in MDA-MB-468 cells; format: cell-based; details: Homo sapiens, Test (b), 2 hours incubation, approximate value, read-out: IC50 versus cellular phospho AKT (ser473) in MDA-MB-468 cells
Description: (b) Protocol for Detection of Phospho AKT (ser473) in MDA-MB-468 Cells
MDA-MB-468 cells (human breast adenocarcinoma ATCC HTB 132) are seeded into Greiner 384 well black flat-bottomed plates by automated cell culture robot (Selec T). Cells can also be maintained manually and seeded into plates using multidrop or Wellmate. Cells seeded at 1500 cell/well in 40 μl of DMEN containing 10% FCS and 1% glutamine. Cell plates are incubated for 18 hours in a 37° C. incubator.
Compounds are dosed onto cells using an Echo acoustic dispenser, which dispenses nl quantities of compound or DMSO. Compounds are dosed in a 12 point concentration range from 30 μM top dose, 28 compounds are dosed on one plate. There are 17 DMSO only positive control wells per plate, and 16 negative control well which have been dosed with a concentration of reference compound that will knockout the pAKT signal.
Plates are incubated at 37° C. for 2 hours, cells are the fixed by the addition of 10 μl of a 3.7% Formaldehyde solution in a fume cupboard using a Wellmate.
After 30 min to allow for fixation, the fixative and media are removed and the plates washed with Proclin PBS/A using Tecan PW384 plate washer in a fume cupboard. Wells are blocked and permeabilised with the addition of 40 μl of PBS containing 0.5% Tween20 and 1% marvel using a Wellmate and incubated for 60 min at room temperature.
Permeabilisation and blocking buffer removed using Tecan PW384 plate washer, then 20 μl primary antibody solution added using a Wellmate. The primary antibody solution is a 1:500 dilution of Rabbit anti-phospho AKT Ser 473 (Cell signalling technologies catalogue number #3787) in PBS/T containing 1% marvel (dried milk powder) and incubated overnight at 4° C.
Plates are washed using a Tecan PW384 plate washer three times with Phosphate Buffered Saline+0.05% (v/v) Polysorbate20 and Proclin300 (Supelco). 20 μl of secondary antibody solution is then added to each well using a Wellmate and incubated for 1 hour at Room Temp. The secondary antibody solution is a 1:1000 dilution of Alexa Fluor 488 anti-Rabbit (Molecular Probes cat no A11008) diluted in Phosphate Buffered Saline+0.05% (v/v) Polysorbate20 containing 1% marvel. Plates are washed three times as before then […] added to each well and plates sealed with black plate sealer.
The plates are read on an Acumen reader as soon as possible. Using this system IC50 values can be generated and quality of plates determined by control wells. Reference compounds are run each time to monitor assay performance.

PI3Kβ = PI3Kβ (Homo sapiens, UniProt P42338); assay: In vitro enzyme inhibition assay (Kinase Glo), PI3Kβ; format: biochemical; details: Test (a)
Sequence of PI3Kβ (P42338 whole entry): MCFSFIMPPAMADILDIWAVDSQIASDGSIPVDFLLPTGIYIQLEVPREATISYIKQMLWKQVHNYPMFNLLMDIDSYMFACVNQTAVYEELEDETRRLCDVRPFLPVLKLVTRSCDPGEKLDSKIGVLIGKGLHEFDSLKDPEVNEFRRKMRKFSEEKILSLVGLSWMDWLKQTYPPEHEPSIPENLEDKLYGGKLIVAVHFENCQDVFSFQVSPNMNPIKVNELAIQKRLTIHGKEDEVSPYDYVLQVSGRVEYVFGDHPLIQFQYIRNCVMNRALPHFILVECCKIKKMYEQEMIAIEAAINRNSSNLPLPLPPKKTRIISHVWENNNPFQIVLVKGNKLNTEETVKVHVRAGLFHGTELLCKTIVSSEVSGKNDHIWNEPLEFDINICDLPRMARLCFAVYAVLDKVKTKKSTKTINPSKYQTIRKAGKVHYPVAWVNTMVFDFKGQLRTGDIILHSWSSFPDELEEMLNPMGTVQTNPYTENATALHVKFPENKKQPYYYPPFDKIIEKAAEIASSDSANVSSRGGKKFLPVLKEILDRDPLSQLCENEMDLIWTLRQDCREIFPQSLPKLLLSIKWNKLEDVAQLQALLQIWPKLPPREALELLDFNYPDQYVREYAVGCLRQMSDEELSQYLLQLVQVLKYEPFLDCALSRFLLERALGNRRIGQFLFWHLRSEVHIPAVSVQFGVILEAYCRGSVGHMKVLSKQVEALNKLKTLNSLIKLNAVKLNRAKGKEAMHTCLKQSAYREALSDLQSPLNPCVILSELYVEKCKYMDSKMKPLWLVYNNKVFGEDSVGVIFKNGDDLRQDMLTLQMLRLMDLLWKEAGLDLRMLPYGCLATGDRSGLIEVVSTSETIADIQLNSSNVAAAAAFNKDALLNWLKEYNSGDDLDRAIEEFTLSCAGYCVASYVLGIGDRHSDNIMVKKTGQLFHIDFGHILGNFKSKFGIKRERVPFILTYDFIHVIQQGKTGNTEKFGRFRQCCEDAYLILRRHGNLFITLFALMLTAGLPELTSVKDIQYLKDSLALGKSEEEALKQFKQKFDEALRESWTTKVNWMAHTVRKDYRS
Sequence of PI3Kβ (P27986 whole entry partner): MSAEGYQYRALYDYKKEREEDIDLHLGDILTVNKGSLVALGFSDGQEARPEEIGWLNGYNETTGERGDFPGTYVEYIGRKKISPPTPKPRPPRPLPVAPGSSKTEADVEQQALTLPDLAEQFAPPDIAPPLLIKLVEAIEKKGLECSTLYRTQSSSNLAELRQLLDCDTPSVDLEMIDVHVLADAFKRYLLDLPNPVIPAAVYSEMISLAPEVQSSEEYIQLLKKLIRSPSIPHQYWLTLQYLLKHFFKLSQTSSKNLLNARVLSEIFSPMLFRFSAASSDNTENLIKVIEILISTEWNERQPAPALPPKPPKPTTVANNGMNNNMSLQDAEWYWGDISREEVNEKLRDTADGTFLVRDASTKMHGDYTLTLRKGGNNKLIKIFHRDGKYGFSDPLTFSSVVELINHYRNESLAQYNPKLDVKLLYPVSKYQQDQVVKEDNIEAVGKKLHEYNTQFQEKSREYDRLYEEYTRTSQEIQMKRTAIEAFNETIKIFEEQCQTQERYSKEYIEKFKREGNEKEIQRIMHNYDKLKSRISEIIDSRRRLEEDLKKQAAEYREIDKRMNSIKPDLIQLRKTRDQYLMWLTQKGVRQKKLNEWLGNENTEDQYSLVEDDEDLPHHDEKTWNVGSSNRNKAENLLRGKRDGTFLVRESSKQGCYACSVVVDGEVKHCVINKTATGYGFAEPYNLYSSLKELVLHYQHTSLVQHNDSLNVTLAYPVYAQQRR
Description: (§1) (a) In Vitro Enzyme Inhibition Assay
(§2) The inhibition of PI3Kβ, PI3Kα, PI3Kγ and PI3Kδ was evaluated in a Kinase Glo based enzyme activity assay using human recombinant enzymes. The assay measures depletion of ATP after incubation with enzyme, PIP2 and ATP plus compound. ATP at the end of the reaction is detected by addition of Kinase Glo reagent, in this the Ultra Glo™ luciferase (Promega) uses the ATP as a substrate to catalyze the mono-oxygenation of luciferin and the generation of light. A direct relationship exists between the luminescence measured with the Kinase-Glo Plus Reagent and the amount of ATP remaining in a completed kinase reaction and luminescence is inversely related to kinase activity. Twelve different compound concentrations were tested and raw data from the inhibition of PI3Kβ, PI3Kα, PI3Kγ and PI3Kδ was plotted versus inhibitor concentration.
(§3) Compounds in 100% DMSO were added to assay plates by acoustic dispensing. PI3β was added in a Tris buffer (50 mM Tris pH7.4, 0.05% CHAPS, 2.1 mM DTT, and 10 mM MgCl2) and allowed to preincubate with compound for 20 min prior to addition of substrate solution containing PIP2 and ATP. The enzyme reaction was stopped after 80 min by the addition of Kinase Glo detection solution. […] The final concentration of DMSO, ATP and PIP2 in the assay were, 1%, 8 μM, and 80 μM respectively.
(§4) IC50 values were calculated using a log curve fitting to a non-linear regression package, fitting raw data to inhibitor concentration.

[2] = system: phosphoinositide (PI) 3-kinase; assay: Comparison of activity of enantiomers (PI 3-kinase inhibitory activity); format: biochemical; details: (+) enantiomer of Example 1.03 compared with the other enantiomer
From the text: The synthesis of optically active forms may be carried out by standard techniques of organic chemistry well known in the art, for example by synthesis from optically active starting materials or by resolution of a racemic form. Similarly, the above-mentioned activity may be evaluated using the standard laboratory techniques.
For the avoidance of doubt, the chiral centre in question is the carbon atom at the 2-position of the central pyrrolidine ring that is linked to the chromenone bicyclic ring.

PI3Kδ = PI3Kδ (Homo sapiens, UniProt O00329); assay: In vitro enzyme inhibition assay (Kinase Glo), PI3Kδ; format: biochemical; details: Test (a)
Sequence of PI3Kδ (O00329 whole entry): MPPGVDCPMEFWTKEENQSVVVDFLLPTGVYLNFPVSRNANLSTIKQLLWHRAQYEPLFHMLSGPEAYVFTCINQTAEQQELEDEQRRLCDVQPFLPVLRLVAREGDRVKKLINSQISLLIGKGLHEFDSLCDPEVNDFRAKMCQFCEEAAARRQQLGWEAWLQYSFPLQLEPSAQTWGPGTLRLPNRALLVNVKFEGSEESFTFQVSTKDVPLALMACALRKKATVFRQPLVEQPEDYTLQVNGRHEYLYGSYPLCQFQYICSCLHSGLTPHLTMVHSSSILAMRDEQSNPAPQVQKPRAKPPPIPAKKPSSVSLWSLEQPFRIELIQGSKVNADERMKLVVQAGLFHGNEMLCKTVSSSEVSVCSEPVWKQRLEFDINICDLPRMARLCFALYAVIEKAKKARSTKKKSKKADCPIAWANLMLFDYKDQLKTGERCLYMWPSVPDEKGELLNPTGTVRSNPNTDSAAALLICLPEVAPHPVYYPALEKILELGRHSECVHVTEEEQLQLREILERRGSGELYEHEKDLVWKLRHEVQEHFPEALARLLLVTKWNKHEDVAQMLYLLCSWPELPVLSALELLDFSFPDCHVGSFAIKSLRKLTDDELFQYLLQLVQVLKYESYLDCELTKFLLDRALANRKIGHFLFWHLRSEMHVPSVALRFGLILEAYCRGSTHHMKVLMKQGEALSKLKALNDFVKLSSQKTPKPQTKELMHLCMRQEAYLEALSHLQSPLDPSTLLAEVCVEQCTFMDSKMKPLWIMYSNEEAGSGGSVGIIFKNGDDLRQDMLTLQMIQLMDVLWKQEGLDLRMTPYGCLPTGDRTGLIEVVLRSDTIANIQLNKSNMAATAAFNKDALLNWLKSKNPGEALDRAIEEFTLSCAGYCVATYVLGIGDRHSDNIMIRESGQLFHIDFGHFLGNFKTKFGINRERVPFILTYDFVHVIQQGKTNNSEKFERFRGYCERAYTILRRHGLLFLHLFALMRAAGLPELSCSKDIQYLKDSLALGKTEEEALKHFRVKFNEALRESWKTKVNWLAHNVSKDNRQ
Sequence of PI3Kδ (P27986 whole entry partner): as the sequence (P27986 whole entry partner) above
Description: as §1, §2, §3, §4

[3] = system: phospho AKT (ser473) in Jeko cells; assay: Detection of phospho AKT (ser473) in Jeko cells; format: cell-based; details: Homo sapiens; Test (e); anti-IgM stimulated; approximate value; read-out: IC50 versus cellular phospho AKT (ser473) in Jeko cells
Description: (e) Protocol for Detection of Phospho AKT (ser473) in Jeko Cells
Compounds at ×10 final concentration in 10 μl of 1% (v/v) DMSO are added to the wells of a Greiner V-bottomed 96 well plate. Compounds are dosed in a 10-point concentration range from 1 μM top dose, 8 compounds are dosed on one plate. There are 8 DMSO positive control wells per plate which have been dosed with vehicle and anti-IgM, and 8 negative control wells which have been dosed with vehicle and assay buffer. Final vehicle concentration is 0.1% DMSO. A reference PI3Kδ selective compound is included in each run. Jeko B cells (human mantle cell lymphoma, ATCC CRL-3006) are seeded into the Greiner 96 well V-bottomed plates containing compounds. Cells are seeded at 100,000 cell/well in 70 μl of RPMI containing 1% glutamine.
Cell plates are incubated for 1 hour in a 37° C. incubator. After this compound pre-incubation time, anti-IgM (F(ab′)2 fragment goat anti-human IgM, Stratech 109-006-129) is added to the plates at ×5 final concentration in 20 μl of assay buffer (RPMI containing 1% glutamine). Final anti-IgM concentration is 0.06 μg/ml or an equivalent EC90 dose. Plates are incubated at 37° C. for 10 min, subsequently plates are immediately placed on ice and centrifuged at […] for 4 min. On ice, supernatants are carefully removed with a manual pipette and 40 μl lysis buffer added. […]

[4] = approximate value, read-out: IC50 versus PI3Kβ
[5] = approximate value, read-out: IC50 versus PI3Kδ
[6] = human recombinant enzyme, ATP 8 μM, PIP2 80 μM, Table A, read-out: PI3Kβ inhibition, IC50
[7] = human recombinant enzyme, Table A, read-out: PI3Kδ inhibition, IC50

**Q.** What does the source list for `O=C(c1cc([C@@H]2CCCN2c2cc(F)cc(F)c2)c2oc(N3CCOCC3)cc(=O)c2c1)N1CCOCC1` [Example 1.03a, 8-[(2S)-1-(3,5-difluorophenyl)pyrrolidin-2-yl]-6-(morpholine-4-carbonyl)-2-morpholino-4H-chromen-4-one]?
**A.** IC50 [1]: ~27 nM; IC50 (PI3Kβ; [4]): ~198 nM; activity relative to the other enantiomer [2]: weaker activity; IC50 (PI3Kδ; [5]): ~282 nM

**Q.** What does the source list for `O=C(c1cc([C@H]2CCCN2c2cc(F)cc(F)c2)c2oc(N3CCOCC3)cc(=O)c2c1)N1CCOCC1` [Example 1.03b, 8-[(2R)-1-(3,5-difluorophenyl)pyrrolidin-2-yl]-6-(morpholine-4-carbonyl)-2-morpholino-chromen-4-one]?
**A.** IC50 [1]: ~1 nM; IC50 [3]: ~7 nM; IC50 (PI3Kβ; [4]): ~7 nM; IC50 (PI3Kβ; [6]): 7 nM; IC50 (PI3Kδ; [5]): ~9 nM; IC50 (PI3Kδ; [7]): 9 nM

**Q.** Which IC50 [1] does the source give for `C[C@@H]1CN(c2cc(=O)c3cc(C(=O)N4CCOCC4)cc(C4CCCN4c4cccc(F)c4)c3o2)CCO1` (stereo partly drawn) [Example 3.02, 8-(1-(3-fluorophenyl)pyrrolidin-2-yl)-2-((R)-2-methylmorpholino)-6-(morpholine-4-carbonyl)-4H-chromen-4-one] here?
**A.** ~3 nM

**Q.** What about the IC50 (PI3Kβ; [4]) of the same compound?
**A.** ~14 nM

**Q.** And the IC50 (PI3Kβ; [6])?
**A.** 14 nM

**Q.** What about the IC50 (PI3Kδ; [5]) of the same compound?
**A.** ~10 nM

**Q.** What about the IC50 (PI3Kδ; [7]) of the same compound?
**A.** 10 nM

**Q.** For `C[C@@H]1CN(c2cc(=O)c3cc(C(=O)N(C)C)cc(C4CCCN4c4cccc(F)c4)c3o2)CCO1` (stereo partly drawn) [Example 3.03, 8-(1-(3-fluorophenyl)pyrrolidin-2-yl)-N,N-dimethyl-2-((R)-2-methylmorpholino)-4-oxo-4H-chromene-6-carboxamide], which IC50 [1] is on record?
**A.** ~1 nM

**Q.** And the IC50 (PI3Kβ; [4])?
**A.** ~10 nM

**Q.** What about the IC50 (PI3Kβ; [6]) of the same compound?
**A.** 10 nM

**Q.** What about the IC50 (PI3Kδ; [5]) of the same compound?
**A.** ~7 nM

**Q.** And the IC50 (PI3Kδ; [7])?
**A.** 7 nM
